{"source": "patent US20250197408A1", "about": "“CRYSTALLINE FORMS AND SALTS OF A PI3K INHIBITOR AND METHODS OF MAKING AND METHODS OF USE THEREOF” (Totus Medicines Inc., priority 2022, published 2025)", "format_in_all_cases": "physicochemical", "key": {"[1]": {"test": "Dynamic vapor sorption (DVS) analysis at 25° C.", "procedure": "In one embodiment, the crystalline forms are characterized by Dynamic Vapor Sorption (DVS). The DVS profile is typically expressed by a diagram plotting the sample relative humidity (RH) versus the change in mass (%). The DVS profile provides information on hygroscopicity of the crystalline form at different RH conditions.\nA DVS (dynamic vapor sorption) analysis at 25° C. was carried out on Form A** of Compound I benzenesulfonate salt as shown in FIG. 3D."}, "[2]": {"test": "Solubility in 7 aqueous pH buffers and bio-relevant fluids at 37° C. (HPLC of supernatant; residual solids by XRPD)", "procedure": "20 mg of the free base Form A of Compound I was weighed into a 20 mL glass vial. Amounts of the salts equivalent to 20 mg anhydrous free base were weighed into a glass vial. 10 mL of solubility medium was added. The resulting suspensions/solutions were stirred at 37° C. at 400 rpm and sampled at 2 hours and at 24 hours, respectively. The samples were centrifuged at 37° C. at 14,000 rpm for 5 min. Supernatants were analyzed by HPLC and pH meter for solubility and pH value, respectively. Residual solids (wet cakes) from the 24 hours samples were also characterized by XRPD to determine physical form.\nResidual solids after the solubility test were analyzed by XRPD."}, "[3]": {"test": "Variable humidity XRPD (VH-XRPD) experiments at 25° C.", "conditions": "VH-XRPD and DVS isotherms", "procedure": "Variable humidity XRPD (VH-XRPD) experiments.\nXRPD analysis was carried out in each specific relative humidity at 25° C. Step: 40% RH (initial)-60% RH (4 h)-80% RH (4 h)-40% RH (4 h)-20% RH (4 h)-0% RH (4 h)-40% RH (4 h)."}, "[4]": {"conditions": "ES1, pH 1.2 HCl solution (0.1N), 37° C."}, "[5]": {"conditions": "ES2, pH 4.5 acetate buffer (50 mM), 37° C."}, "[6]": {"conditions": "ES3, pH 6.8 phosphate buffer (50 mM), 37° C."}, "[7]": {"conditions": "ES4, pH 7.4 phosphate buffer (50 mM), 37° C."}}, "data": [{"smiles": "C=CC(=O)NCC(=O)N1CCN(Cc2cc3c(N4CCOCC4)nc(-c4cnc(NC(=O)OC)cc4C(F)(F)F)nn3c2)CC1.O=P(O)(O)O", "note": "[Form A* of Compound I phosphate salt, Methyl (5-(6-((4-(acryloylglycyl)piperazin-1-yl)methyl)-4-morpholinopyrrolo[2,1-f][1,2,4]triazin-2-yl)-4-(trifluoromethyl)pyridin-2-yl) carbamate phosphate salt]", "values": [{"measurement": "hygroscopicity / water sorption behavior (DVS)", "setting": "[1]", "result": "slightly hygroscopic in <90% RH. Then it becomes hygroscopic"}, {"measurement": "relative humidity in which it converts to hydrate form (DVS)", "setting": "[1]", "result": "> 30", "unit": "% RH"}, {"measurement": "relative humidity in which the form dehydrates (DVS)", "setting": "[1]", "result": "< 30", "unit": "% RH"}, {"measurement": "solid form of the sample after the DVS test", "setting": "[1]", "result": "still the Form A* of Compound I phosphate salt"}, {"measurement": "water uptake (DVS)", "setting": "[1]; from 40% to 95% RH", "result": 3.3, "unit": "%"}, {"measurement": "solubility compared among forms", "setting": "[2]; 37° C., 2 h and 24 h, 7 aqueous pH buffers and bio-relevant fluids", "result": "highest solubility"}, {"measurement": "Solubility for 2 h", "setting": "[2]; [4]", "result": 1200, "unit": "µg/mL"}, {"measurement": "pH of supernatant, solubility for 2 h (pH)", "setting": "[2]; [4]", "result": "(1.2)"}, {"measurement": "Solubility for 24 h", "setting": "[2]; [4]", "result": 1000, "unit": "µg/mL"}, {"measurement": "pH of supernatant, solubility for 24 h (pH)", "setting": "[2]; [4]", "result": "(1.0)"}, {"measurement": "Solubility for 2 h", "setting": "[2]; [5]", "result": ">2000", "unit": "µg/mL"}, {"measurement": "pH of supernatant, solubility for 2 h (pH)", "setting": "[2]; [5]", "result": "(4.4)"}, {"measurement": "Solubility for 24 h", "setting": "[2]; [5]", "result": ">2000", "unit": "µg/mL"}, {"measurement": "pH of supernatant, solubility for 24 h (pH)", "setting": "[2]; [5]", "result": "(4.4)"}, {"measurement": "Solubility for 2 h", "setting": "[2]; [6]", "result": 8.8, "unit": "µg/mL"}, {"measurement": "pH of supernatant, solubility for 2 h (pH)", "setting": "[2]; [6]", "result": "(6.6)"}, {"measurement": "Solubility for 24 h", "setting": "[2]; [6]", "result": 6.4, "unit": "µg/mL"}, {"measurement": "pH of supernatant, solubility for 24 h (pH)", "setting": "[2]; [6]", "result": "(6.5)"}, {"measurement": "Solubility for 2 h", "setting": "[2]; [7]", "result": 6.1, "unit": "µg/mL"}, {"measurement": "pH of supernatant, solubility for 2 h (pH)", "setting": "[2]; [7]", "result": "(7.2)"}, {"measurement": "Solubility for 24 h", "setting": "[2]; [7]", "result": 4.1, "unit": "µg/mL"}, {"measurement": "pH of supernatant, solubility for 24 h (pH)", "setting": "[2]; [7]", "result": "(7.1)"}, {"measurement": "Solubility for 2 h", "setting": "[2]; ES5, SGF, pH 2.0, 37° C.", "result": ">2000", "unit": "µg/mL"}, {"measurement": "pH of supernatant, solubility for 2 h (pH)", "setting": "[2]; ES5, SGF, pH 2.0, 37° C.", "result": "(1.9)"}, {"measurement": "Solubility for 24 h", "setting": "[2]; ES5, SGF, pH 2.0, 37° C.", "result": ">2000", "unit": "µg/mL"}, {"measurement": "pH of supernatant, solubility for 24 h (pH)", "setting": "[2]; ES5, SGF, pH 2.0, 37° C.", "result": "(1.8)"}, {"measurement": "Solubility for 2 h", "setting": "[2]; ES6, FaSSIF-v1, pH 6.5, 37° C.", "result": 26.8, "unit": "µg/mL"}, {"measurement": "pH of supernatant, solubility for 2 h (pH)", "setting": "[2]; ES6, FaSSIF-v1, pH 6.5, 37° C.", "result": "(6.2)"}, {"measurement": "Solubility for 24 h", "setting": "[2]; ES6, FaSSIF-v1, pH 6.5, 37° C.", "result": 21.1, "unit": "µg/mL"}, {"measurement": "pH of supernatant, solubility for 24 h (pH)", "setting": "[2]; ES6, FaSSIF-v1, pH 6.5, 37° C.", "result": "(6.1)"}, {"measurement": "Solubility for 2 h", "setting": "[2]; ES7, FeSSIF-v1, pH 5.0, 37° C.", "result": 1600, "unit": "µg/mL"}, {"measurement": "pH of supernatant, solubility for 2 h (pH)", "setting": "[2]; ES7, FeSSIF-v1, pH 5.0, 37° C.", "result": "(5.0)"}, {"measurement": "Solubility for 24 h", "setting": "[2]; ES7, FeSSIF-v1, pH 5.0, 37° C.", "result": 1700, "unit": "µg/mL"}, {"measurement": "pH of supernatant, solubility for 24 h (pH)", "setting": "[2]; ES7, FeSSIF-v1, pH 5.0, 37° C.", "result": "(4.9)"}, {"measurement": "maintenance of supersaturation", "setting": "[2]; pH 4.5 buffer, 37° C.", "result": "can be maintained for a longer time than the crystalline Form B* of Compound I maleate salt"}, {"measurement": "relative humidity at which the form dehydrates and converts to anhydrate Form B of Compound I phosphate salt", "setting": "[3]", "result": "< 20", "unit": "% RH"}]}]}
